In general, clearance refers to the rate of elimination divided by the concentration. Broadly, the GI50 is the concentration that inhibits growth by half. The AUC(0-t) is the area under the concentration-time curve up to a stated or last time point. Low values mean low exposure, high ones high exposure. The IC50 is the concentration at which inhibition is half-maximal. The bioavailability is the share of a dose that reaches the circulation, judged against a reference dose that is usually intravenous. High values mean good availability, low ones poor availability. What is called MRT is a mean duration of stay, worked out from the concentration-time curve. By half-life is commonly meant how long it takes for the measured level to halve. As usually defined, the solubility is the concentration that dissolves in the medium under given conditions. A higher solubility goes with a readily soluble substance. As a reminder, the Cmax is the peak of the concentration-time curve.

Series [1] in a line: Clearance in Sprague-Dawley rat plasma at 1 mg/kg, iv by LC-MS/MS analysis. The series is classed as ADME, organism-based.
A short description of series [2]: Half life in Sprague-Dawley rat plasma at 1 mg/kg, iv by LC-MS/MS analysis. The series is classed as ADME, organism-based. The conditions noted are these: for t1/2: in vivo, 1 mg/kg; for half-life: Sprague-Dawley, plasma.
A further series concerns NCI-H358. The experiment in a line: Cytotoxicity against human NCI-H358 cells assessed as inhibition of growth measured after 72 hrs by CellTiter-Glo luciferase assay. Format: functional. (ATP-based viability assays read luminescence as a measure of living cells.)
The nature of series [3]: AUC (0 to t) in Sprague-Dawley rat plasma at 1 mg/kg, iv by LC-MS/MS analysis. Format: ADME, organism-based. Also noted: dose 1 mg/kg.
Series [4] concerns the target RAF proto-oncogene serine/threonine-protein kinase (Homo sapiens, UniProt P04049). Briefly: Inhibition of human recombinant cRAF measured after 60 mins by TR-FRET assay.
A short description of series [5]: Oral bioavailability in Sprague-Dawley rat by LC-MS/MS analysis. The series is classed as ADME, organism-based. The following applies: Sprague-Dawley, in vivo.
Series [6] in a line: MRT (0 to infinity) in Sprague-Dawley rat plasma at 1 mg/kg, iv by LC-MS/MS analysis. The series is classed as ADME, organism-based. The conditions noted are these: in vivo.
Series [7] is described as follows: AUC (0 to t) in Sprague-Dawley rat plasma at 2 mg/kg, IG by LC-MS/MS analysis. Format: ADME, organism-based. Also noted: dose 2 mg/kg. The conditions noted are these: Sprague-Dawley, plasma, po.
Series [8] is described as follows: Metabolic stability in human liver microsomes assessed as half life. Format: ADME, Microsome.
A short description of series [9]: Solubility of the compound at pH 7.4. The conditions noted are these: buffer.
The nature of series [10]: Cmax in Sprague-Dawley rat plasma at 2 mg/kg, IG by LC-MS/MS analysis. Format: ADME, organism-based. Also noted: route […], dose 2 mg/kg. The following applies: po.
The next series relates to Calu-6. Briefly: Antitumor activity against human Calu-6 cells xenografted in nude mouse assessed as tumor growth inhibition at 30 mg/kg,IT QD for 12 days relative to control. Format: functional. The conditions noted are these: Calu-6, 288 h, time 12 day, read-out: TGI. (Xenograft models place foreign cells or tissue in a host animal.)

≈ marks a conversion by molar mass, not a printed value.

RAF proto-oncogene serine/threonine-protein kinase, sequence (P04049 whole entry): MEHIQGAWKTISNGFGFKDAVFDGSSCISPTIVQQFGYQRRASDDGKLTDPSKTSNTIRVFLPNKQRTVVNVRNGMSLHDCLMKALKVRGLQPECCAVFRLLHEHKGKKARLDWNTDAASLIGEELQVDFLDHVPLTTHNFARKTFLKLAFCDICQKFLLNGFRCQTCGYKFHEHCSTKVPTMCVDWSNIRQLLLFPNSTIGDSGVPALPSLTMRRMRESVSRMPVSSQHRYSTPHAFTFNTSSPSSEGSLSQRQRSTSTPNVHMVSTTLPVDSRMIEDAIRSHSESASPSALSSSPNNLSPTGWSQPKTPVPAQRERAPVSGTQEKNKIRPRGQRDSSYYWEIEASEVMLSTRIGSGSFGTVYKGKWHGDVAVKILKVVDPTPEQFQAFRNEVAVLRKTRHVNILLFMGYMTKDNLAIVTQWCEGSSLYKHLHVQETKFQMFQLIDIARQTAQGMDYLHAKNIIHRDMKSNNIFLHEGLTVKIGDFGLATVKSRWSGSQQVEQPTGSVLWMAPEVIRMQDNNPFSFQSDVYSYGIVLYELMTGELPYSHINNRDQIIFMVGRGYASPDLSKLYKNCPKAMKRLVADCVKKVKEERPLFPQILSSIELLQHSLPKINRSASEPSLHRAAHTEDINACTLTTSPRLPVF

Regarding `Cc1ccc(-c2nnc(-c3ccnc(C(F)(F)F)c3)[nH]2)cc1-c1ccc2c(c1)OC1(CCOCC1)CC(=O)N2`, in series [1], the clearance was 17.1 mL/min/kg. The compound further showed a t1/2 in series [2] of 3.79 h. In the series with NCI-H358, the GI50 stood at 2500 nM. The results for the AUC(0-t) in series [3] and in [7] were 999 ng·h/mL and 38.6 ng·h/mL, respectively. The IC50 in series [4] came out at 48 nM. This compound came in with a bioavailability in series [5] of 2.16%. This compound yielded an MRT in series [6] of 2.59 h.
Take `COc1nnc(C(=O)Nc2ccc(C)c(-c3ccc4c(c3)OC3(CCOCC3)CC(=O)N4)c2)cc1C(F)(F)F`: the half-life in series [8] was determined as 57 min. Besides, the concentration in solution in [9] (solubility) came to 3.6 µM (≈ 1.95 µg/mL). Further, the GI50 in the series on NCI-H358 is 2600 nM. In addition, the IC50 in series [4] was 22 nM.
`Cc1ccc(NC(=O)c2cnnc(C(F)(F)F)c2)cc1-c1ccc2c(c1)OC1(CCOCC1)CC(=O)N2` displayed a clearance in [1] of 16.1 mL/min/kg. Moreover, the half-life in series [2] is 90 min. The concentration in solution in series [9] (solubility) was 0.44 µM (≈ 0.225 µg/mL). In the series with NCI-H358, the GI50 was determined as 2000 nM. The IC50 in [4] is 3.2 nM. In series [5], the bioavailability was found to be 9.2%. The compound also displayed a Cmax in series [10] of 40 ng/mL. In series [7], this compound gave an AUC(0-t) of 176 ng·h/mL.
`Cc1ccc(NC(=O)c2ccnc(C(F)(F)F)c2)cc1-c1cc(OCCO)nc(N2CCOCC2)c1` [NAPORAFENIB]: the solubility in series [9] is 26 µM (≈ 13.1 µg/mL). Also, the concentration for 50% growth inhibition (GI50) with NCI-H358 amounted to 3000 nM. The inhibition in vivo at 30 mg/kg in the series on Calu-6 was determined as 67%. Also, in series [4], the IC50 came out at 8.6 nM.
For the compound `Cc1cc(F)c(NC(=O)Nc2ccnc(C(F)(F)F)c2)cc1-c1ccc2c(c1)OC1(CCOCC1)CC(=O)N2`, the clearance in series [1] worked out at 120 mL/min/kg. Further, the t1/2 in series [2] is 0.37 h. In the series with NCI-H358, the GI50 was 200 nM. The compound further displayed an exposure AUC(0-t) in series [3] of 154 ng·h/mL. In [4], the IC50 amounted to 6.7 nM. In [6], this compound yielded an MRT of 0.19 h.
For the compound `Cc1ccc(NC(=O)c2ccnc(OC(F)F)c2)cc1-c1ccc2c(c1)OC1(CCOCC1)CC(=O)N2`, the clearance in [1] is 16.7 mL/min/kg. This compound showed a half-life in [2] of 90 min. The solubility in [9] came to 0.16 µM (≈ 0.0815 µg/mL). For the same compound, in the series on NCI-H358, the GI50 worked out at 900 nM. For the same compound, in series [4], the 50% inhibitory concentration (IC50) is 4.1 nM. This compound returned a bioavailability in series [5] of 22%. Moreover, the Cmax in series [10] came to 107 ng/mL. The same compound showed an AUC(0-t) in series [7] of 455 ng·h/mL.

(Values after ChEMBL document CHEMBL5038628, “Discovery of spiro amide SHR902275: A potent, selective, and efficacious RAF inhibitor targeting RAS mutant cancers” (Eur J Med Chem, 2022).)
